The target of experiment [1] is T1, PfCRT^Dd2 (Plasmodium falciparum, UniProt Q8IBZ9, A220S/I356T/K76T/M74I/N326S/N75E/Q271E/R371I).
T1 sequence (Q8IBZ9 1-424 M74I/N75E/K76T/A220S/Q271E/N326S/I356T/R371I): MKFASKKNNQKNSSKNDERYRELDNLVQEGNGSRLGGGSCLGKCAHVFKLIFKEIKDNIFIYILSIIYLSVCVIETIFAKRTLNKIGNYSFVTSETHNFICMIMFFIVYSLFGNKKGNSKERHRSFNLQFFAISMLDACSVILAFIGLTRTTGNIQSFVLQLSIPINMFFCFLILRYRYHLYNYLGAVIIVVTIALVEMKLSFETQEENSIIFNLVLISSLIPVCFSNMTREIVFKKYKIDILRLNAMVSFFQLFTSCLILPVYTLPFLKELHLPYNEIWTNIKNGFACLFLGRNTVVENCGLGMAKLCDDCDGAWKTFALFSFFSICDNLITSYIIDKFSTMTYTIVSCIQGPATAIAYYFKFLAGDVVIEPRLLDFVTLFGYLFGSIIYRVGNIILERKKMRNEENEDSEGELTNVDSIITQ
Also on record: expressed in transfected cells; host or cells: Xenopus laevis oocytes injected with in vitro transcribed RNA (pSP64T). The settings on record: cited from earlier work.

The target of experiment [2] is T2, PfCRT^Dd2_G353V (Plasmodium falciparum, UniProt Q8IBZ9, A220S/G353V/I356T/K76T/M74I/N326S/N75E/Q271E/R371I).
T2 construct: expressed in transfected cells; host or cells: Xenopus laevis oocytes injected with in vitro transcribed RNA (pSP64T)
T2 sequence (Q8IBZ9 1-424 M74I/N75E/K76T/A220S/Q271E/N326S/G353V/I356T/R371I): T1 sequence (Q8IBZ9 1-424 M74I/N75E/K76T/A220S/Q271E/N326S/I356T/R371I) with G353V
As to the kind of experiment: Verapamil inhibition of PfCRT-mediated CQ and PPQ transport in oocytes, PfCRT^Dd2_G353V. In kind it is cell-based. The note with it: 100 μM verapamil, 50 μM CQ or PPQ. The method, then:
(§1) In all cases, the PfCRT-mediated CQ and PPQ transport was inhibited in the presence of 100 μM verapamil (S3 Fig).
(§2) Drug transport assays were performed as previously described. Briefly, measurements of radiolabeled drug uptake were made over 1 h, unless otherwise specified. […] Where specified, one or more unlabeled drugs were also present at the indicated concentrations. The direction of drug transport in the assays is from the extracellular medium (pH 6) into the oocyte cytosol (pH 7.2), which corresponds to the efflux of CQ or PPQ from the acidic digestive vacuole (pH 5.2) into the parasite cytosol (pH 7.2). The uptake assays were terminated by removing the oocytes from the reaction medium and washing them three times with 2 mL of ice-cold ND96 buffer. Each oocyte was transferred to a separate scintillation vial and lysed by the addition of 200 μL of a 5% SDS solution. The radioactivity in the sample was measured using a liquid scintillation analyser Tri-Carb 4910 TR (PerkinElmer). Water-injected oocytes were analyzed in parallel as a negative control. The buffer from each condition was measured in duplicate in parallel to each experiment to transform counts per minute into pmol of drug. Drug uptake attributable to PfCRT was determined by subtracting the background uptake from water-injected oocytes from that of PfCRT-expressing oocytes. In all cases, at least three independent experiments were performed on oocytes from different frogs, and for each condition in an experiment, measurements were made from 10 oocytes per treatment.
(§3) Supplementary file ppat.1011436.s006.tif: S3 Fig Verapamil inhibits PfCRT-mediated transport of CQ and PPQ. […] Left panels, data is shown as individual biological replicates (coloured symbols) overlaid onto bars representing the Mean ± S.E.M. (error bars). A one-tailed Student’s t-test was performed between untreated (no VP) and treated (+ 100 μM VP) samples, and the obtained p values are shown. Right panels, the uptake in VP-treated samples was divided by the uptake in their corresponding untreated pairs and subtracted from 100% to get the percentage of uptake inhibition mediated by the presence of 100 μM verapamil in the extracellular medium. Error bars are S.E. (TIF) Click here for additional data file.

Experiment [3] addresses T3, PfCRT^Dd2_M343L (Plasmodium falciparum, UniProt Q8IBZ9, A220S/I356T/K76T/M343L/M74I/N326S/N75E/Q271E/R371I).
T3 construct: expressed in transfected cells; host or cells: Xenopus laevis oocytes injected with in vitro transcribed RNA (pSP64T)
T3 sequence (Q8IBZ9 1-424 M74I/N75E/K76T/A220S/Q271E/N326S/M343L/I356T/R371I): T1 sequence (Q8IBZ9 1-424 M74I/N75E/K76T/A220S/Q271E/N326S/I356T/R371I) with M343L
As to the kind of experiment: Verapamil inhibition of PfCRT-mediated CQ and PPQ transport in oocytes, PfCRT^Dd2_M343L. In kind it is cell-based. The settings on record: 100 μM verapamil, 50 μM CQ or PPQ. The protocol: as §1, §2, §3

The target in experiment [4] is T4, PfCRT^Dd2_H97Y (Plasmodium falciparum, UniProt Q8IBZ9, A220S/H97Y/I356T/K76T/M74I/N326S/N75E/Q271E/R371I).
T4 construct: expressed in transfected cells; host or cells: Xenopus laevis oocytes injected with in vitro transcribed RNA (pSP64T)
T4 sequence (Q8IBZ9 1-424 M74I/N75E/K76T/H97Y/A220S/Q271E/N326S/I356T/R371I): T1 sequence (Q8IBZ9 1-424 M74I/N75E/K76T/A220S/Q271E/N326S/I356T/R371I) with H97Y
As to the kind of experiment: Verapamil inhibition of PfCRT-mediated CQ and PPQ transport in oocytes, PfCRT^Dd2_H97Y. The format is cell-based. The note with it: 100 μM verapamil, 50 μM CQ or PPQ. The method, then:
as §1, §2, §3

The target of experiment [5] is T5, PfCRT^Dd2_F145I (Plasmodium falciparum, UniProt Q8IBZ9, A220S/F145I/I356T/K76T/M74I/N326S/N75E/Q271E/R371I).
T5 construct: expressed in transfected cells; host or cells: Xenopus laevis oocytes injected with in vitro transcribed RNA (pSP64T)
T5 sequence (Q8IBZ9 1-424 M74I/N75E/K76T/F145I/A220S/Q271E/N326S/I356T/R371I): T1 sequence (Q8IBZ9 1-424 M74I/N75E/K76T/A220S/Q271E/N326S/I356T/R371I) with F145I
Briefly: Verapamil inhibition of PfCRT-mediated CQ and PPQ transport in oocytes, PfCRT^Dd2_F145I. The note with it: 100 μM verapamil, 50 μM CQ or PPQ. In kind it is cell-based. The protocol:
as §1
as §2, with “In all cases, at least three independent experiments were performed on oocytes from different frogs, and for each condition in an experiment, measurements were made from 10 oocytes per treatment.” left out

For experiment [6], the target named is T1, PfCRT^Dd2. As to the kind of experiment: Verapamil inhibition of PfCRT-mediated CQ and PPQ transport in oocytes, PfCRT^Dd2. In kind it is cell-based. Also on record: expressed in transfected cells; host or cells: Xenopus laevis oocytes injected with in vitro transcribed RNA (pSP64T). The settings on record: 100 μM verapamil, 50 μM CQ or PPQ. The method, then: as §1, §2, §3

Substitutions are numbered along the chain they refer to. Entries after “also recorded” stand apart in the source; their conditions may differ.

These results are taken from PMC10281575, “PfCRT mutations conferring piperaquine resistance in falciparum malaria shape the kinetics of quinoline drug binding and transport” (PLOS Pathogens, 2023).

Take `C=C[C@H]1C[N@@]2CC[C@H]1C[C@H]2[C@H](O)c1ccnc2ccc(OC)cc12` [quinine]: the “inhibition model versus CQ on PfCRT” value in experiment [1] is on record as “partial mixed-type inhibition”.

Regarding `COc1ccc(CCN(C)CCCC(C#N)(c2ccc(OC)c(OC)c2)C(C)C)cc1OC` (stereo not shown) [verapamil], the “PfCRT-mediated CQ and PPQ transport in the presence of verapamil” value in experiment [2], in experiment [3], in experiment [4], in experiment [5] and in experiment [6] was “inhibited” in each case. Also, in experiment [1], the “inhibition model versus CQ on PfCRT” value was “partial mixed-type inhibitor; also recorded: mixed-type inhibition”.
